The text below walks through data of ChEMBL document CHEMBL1147633, “Structure-activity relationships of a novel class of endothelin receptor selective antagonists; 6-carboxy-2-isopropylamino-5,7-diarylcyclopenteno[1,2-b]pyridines” (Bioorg Med Chem Lett, 2004).

Broadly, the IC50 is the concentration at which inhibition is half-maximal. Broadly, the bioavailability is the share of a dose that reaches the circulation, judged against a reference dose that is usually intravenous.

In data set [1] the target is T1, Endothelin receptor type B (Homo sapiens, UniProt P24530).
T1 sequence (P24530 whole entry): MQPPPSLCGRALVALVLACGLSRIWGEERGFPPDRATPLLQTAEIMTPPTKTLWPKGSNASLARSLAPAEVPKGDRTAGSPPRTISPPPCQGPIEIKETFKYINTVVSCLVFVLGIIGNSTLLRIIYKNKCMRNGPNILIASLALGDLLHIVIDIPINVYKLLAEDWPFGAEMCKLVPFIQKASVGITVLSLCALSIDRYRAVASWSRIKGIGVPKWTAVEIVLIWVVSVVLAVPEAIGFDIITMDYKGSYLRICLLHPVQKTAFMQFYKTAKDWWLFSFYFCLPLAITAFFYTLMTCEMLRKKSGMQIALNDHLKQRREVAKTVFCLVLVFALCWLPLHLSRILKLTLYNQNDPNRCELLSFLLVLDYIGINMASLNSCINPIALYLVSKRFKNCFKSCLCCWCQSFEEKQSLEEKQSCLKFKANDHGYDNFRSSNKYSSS
Briefly: Inhibitory activity against [125I]ET1 binding to human endothelin B receptor.

The subject of data set [2] is Rattus norvegicus. Put plainly: Plasma levels of compound was evaluated in rats after 8 hr of oral administration at 3 mg/kg. In kind it is functional, organism-based. More on the design: dose 3 mg/kg.
The subject of data set [3] is Mus musculus. Briefly: In vivo efficacy of compound was determined in mouse after intravenous administration. In kind it is functional.
The target in data set [4] is T2, Endothelin-1 receptor (Homo sapiens, UniProt P25101).
T2 sequence (P25101 whole entry): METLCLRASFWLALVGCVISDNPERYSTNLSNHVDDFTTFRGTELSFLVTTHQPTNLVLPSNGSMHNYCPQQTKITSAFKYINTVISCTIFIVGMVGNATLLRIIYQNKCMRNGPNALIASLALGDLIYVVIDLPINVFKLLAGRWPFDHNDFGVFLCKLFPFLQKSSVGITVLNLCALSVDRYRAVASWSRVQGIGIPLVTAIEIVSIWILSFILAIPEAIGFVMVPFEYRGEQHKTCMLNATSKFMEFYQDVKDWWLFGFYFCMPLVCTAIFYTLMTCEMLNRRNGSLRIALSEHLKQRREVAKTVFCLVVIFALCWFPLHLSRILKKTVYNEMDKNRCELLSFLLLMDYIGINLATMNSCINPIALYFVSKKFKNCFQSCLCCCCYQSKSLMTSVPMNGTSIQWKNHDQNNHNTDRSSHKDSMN
Put plainly: Inhibitory activity against [125I]ET1 binding to human endothelin A receptor.

The species named for data set [5] is Oryctolagus cuniculus. Briefly: Antagonistic activity towards endothelin A receptor was evaluated using the rabbit iliac artery in presence of 3% human serum albumin. The data set is classed as functional.
Data set [6] in a line: Bioavailability in rat (dose 3 mg/kg p.o.). In kind it is ADME, organism-based. The following applies: in vivo, po.
The target in data set [7] is Endothelin receptor, ET-A/ET-B (Homo sapiens) (UniProt P24530+P25101). Briefly: Selectivity ratio of inhibitory activity towards endothelin receptor A to endothelin receptor B (ETB/ETA). In kind it is protein assay.
For data set [8], the system named is Rattus norvegicus. Briefly: Plasma levels of compound was evaluated in rats after 4 hr of oral administration at 3 mg/kg. In kind it is functional, organism-based. Details: dose 3 mg/kg.
Data set [9] relates to Rattus norvegicus. Briefly: Plasma levels of compound was evaluated in rats after 1 hr of oral administration at 3 mg/kg. In kind it is functional, organism-based. More on the design: dose 3 mg/kg.
Data set [10] is described as follows: Bioavailability in rat (dose 1 mg/kg i.v.). In kind it is ADME, organism-based. The following applies: in vivo, iv.

In the case of `COc1ccc([C@@H]2c3nc(NC(C)C)ccc3[C@H](c3ccc4c(c3)OCO4)[C@H]2C(=O)O)c(CO)c1`, the IC50 in data set [1] was determined as 62 nM; in [4], 0.062 nM. Also, the Plasma level in [2] came out at 19 nM; in [8], 94 nM; in [9] it was 130 nM. Besides, in data set [3], the AD50 was 0.12 MPK. The PKB in data set [5] is given as 7.76. For the same compound, the bioavailability in data set [6] was 57%. For the same compound, the Selectivity ratio in [7] is 1000.
As to `COc1ccc([C@@H]2c3nc(NC(C)C)ccc3[C@H](c3ccc4c(c3)OCO4)[C@H]2C(=O)O)c(CN(C)C(C)=O)c1`, the IC50 in data set [1] stood at 43 nM; in [4], 0.027 nM. The Plasma level in [2] is 0.4 nM; in [8], 3 nM; in [9], 2 nM. Also, in data set [5], the PKB was 8.97. Further, the Selectivity ratio in [7] was determined as 1600.
As for `COc1ccc([C@@H]2c3nc(NC(C)C)ccc3[C@H](c3ccc4c(c3)OCO4)[C@H]2C(=O)O)c(CC(C)CO)c1` (stereo in doubt; form 1), the IC50 in data set [1] worked out at 54 nM; in [4], 0.041 nM. This compound registered an AD50 in [3] of 0.034 MPK. In [5], the PKB was determined as 8.33. The compound further registered a bioavailability in [10] of 7.6%.
For `COCC(C)Cc1cc(OC)ccc1[C@@H]1c2nc(NC(C)C)ccc2[C@H](c2ccc3c(c2)OCO3)[C@H]1C(=O)O` (stereo in doubt; form 1) [listing 1 of 2 here], the IC50 was determined as 48 nM in data set [1] and 0.025 nM in data set [4]. The AD50 in data set [3] was determined as 0.039 MPK. In data set [5], the PKB turned out to be 8.33. Also, the bioavailability in data set [6] and in [10] was 70% each time.
`COCC(C)Cc1cc(OC)ccc1[C@@H]1c2nc(NC(C)C)ccc2[C@H](c2ccc3c(c2)OCO3)[C@H]1C(=O)O` (stereo in doubt; form 1) [listing 2 of 2 here]: the Plasma level in data set [2] is 52 nM; in data set [8], 81 nM; in data set [9], 220 nM. Moreover, the Selectivity ratio in data set [7] came out at 1900.
